≈ marks a conversion by molar mass, not a printed value. Counter-ions that a name gives are not always drawn. Like-named read-outs stand apart in the source and are kept apart here. Where a SMILES comes first, the peptide text is derived from it. [ ]: non-standard residue; d: D form.
Columns and labels:
WERI-Rb1 cells [1] = assay: Trypan blue viability assay; assay type: cell-based; conditions: WERI-Rb1, 48 h treatment; for cell death at a high dose: high dose (dose not specified); for cell death at a low dose: low dose (dose not specified)
Description: WERI-Rb1 cells (1 × 10^5) were treated with increasing concentrations (7.7 µM, 36.25 µM, 72.5 µM, 145 µM, or 290 µM) of a panel of six HC peptides (HC1, HC2, HC3, HC4, HC5, and HC6). Nocodazole (10 µM) treatment was used as a positive control for the study, with untreated cells as the negative control. All treatments were performed at 37 °C in a 90% humidified incubator with 5% CO2 for 48 h. After 48 h post-treatment, cells were stained with 0.4% trypan blue (cat#15250061, Invitrogen, Waltham, MA, USA) and the number of live and dead cells for each time point was estimated using the hemocytometer cell counting protocol. The percentage of cell viability was calculated by dividing the live cell count by the total cell count.

WERI-Rb1 cells [2] = assay: MTS cell viability assay; assay type: cell-based
Description: (§1) WERI-Rb1 and ARPE-19 cells were seeded at a concentration of 2 × 10^3 cells/well in a 96-well plate and cultured at 37 °C in a humidified 5% CO2 incubator. After seeding the cells, they were treated with various concentrations of CAPs and further incubated for 48 h at 37 °C. Cell viability was assessed after 48 h using the Cell-Titer 96® Aqueous One Solution Cell Proliferation Assay (cat#G3582, Promega, WI, USA) according to the manufacturer’s protocol and described earlier. Briefly, 10 µL of MTS reagent was added to each well and the cells were incubated at 37 °C for 2 h before the experiment end time points. Percentage cell viability was calculated from the absorbance measured at 490 nm using a TECAN microplate reader.

ARPE-19 cells [3] = assay: MTS cell viability assay; assay type: cell-based, Human; conditions: ARPE-19, MTS, 48 h (Figure 2c)
Description: as §1

WERI-Rb1 tumor spheroids = assay: Tumor spheroid area by high content imaging; assay type: cell-based; conditions: 7-day-old WERI-Rb1 spheroids, IC50 dose, 48 h, n = 9 per condition
Description: Spheroids were developed using the hanging drop protocol on low attachment U-bottom 96-well plate. The single cell suspension of 5 × 10^2 WERI-Rb1 cells in 100 µL medium was loaded in each well of a 96-well plate. The cells were cultured at 37 °C in a 90% humidified incubator with 5% CO2 for 7 days for the generation of tight and regular tumor spheroids. Seven-day-old spheroids (n = 9 per condition) were treated with 100 μL of freshly prepared medium containing an IC50 dose of topotecan (Figure S1), HC3, or HC5. The cultures were then incubated for 48 h prior to high content analysis (HCA) and immunofluorescence (IF) assays.
WERI-Rb1 cells were stained with orange plasma membrane stain as per the manufacturer’s protocol (Cell Mask Orange Plasma membrane stain; cat#C10045, Invitrogen, Waltham, MA, USA) prior to the development of spheroids. The stained WERI-Rb1 cells were used for spheroid formation using the hanging drop protocol on a low attachment U-bottom 96-well plate. […] The images were acquired using the automated high-content imaging system, IN Cell Analyzer 6000 (GE Healthcare, Singapore), equipped with a laser-based confocal platform having a 2× objective. The automatically captured single well imaging of spheroids and a Z stack of 11 images were separated by 50 µm total 500 µm depth for spheroids, using maximum intensity projection (MIP) acquisition and single-channel filter at 567 nm. To reduce data storage and image analysis time, we analyzed 2D projection images of tumor spheroids for multiple treatment conditions. Spheroid area and shape were automatically quantified by HCA using the IN-Cell 6000 software (GE Healthcare, Singapore). The mean area (µm^2) of each spheroid was calculated to elucidate the drug/peptide response.

WERI-Rb1 cells [4] = assay: Western blot of DNA damage markers; assay type: cell-based; conditions: IC50 dose; for phosphorylation of ATM and CHK2 (immunoblot): 48-h treatment, Western blot (Figure 4b); for γH2A.X phosphorylation at Ser139 (immunoblot): 48 h, Western blot (Figure 4a)
Description: WERI-Rb1 cells were seeded in 6-well cell culture plates (1 × 10^6 cells/well), incubated at 37 °C in a humidified 5% CO2 incubator, and were treated with IC50 doses of topotecan, HC3. or HC5. After 48 h, cells were lysed in RIPA buffer (20 mM Tris pH 8.0, 0.1% SDS, 150 mM NaCl, 0.08% sodium deoxycholate, 1% NP40 supplemented with one tablet of protease inhibitor and phosphatase inhibitor (Roche). 20 µg of total protein was loaded per lane and separated by SDS-PAGE. The separated proteins on the gel were transferred to PVDF membrane and were probed for antibodies against γH2A.X (1:1000, cat#2595, Cell Signaling Technology, Danvers, MA, USA), p-γH2A.X (Ser139) (1:1000, cat#2577, Cell Signaling Technology, Danvers, MA, USA), p-BCL2(Ser70) (1:1000, cat#2827, Cell Signaling Technology, Danvers, MA, USA), BCL2 (1:1000, cat#2872, Cell Signaling Technology, Danvers, MA, USA), Bax (1:1000, cat#2772, Cell Signaling Technology, Danvers, MA, USA), p-ATM(Ser1981) (1:1000, cat#5883, Cell Signaling Technology, Danvers, MA, USA), ATM (1:1000, cat#2873, Cell Signaling Technology, Danvers, MA, USA), p-Chk2(Thr68) (1:1000, cat#2661, Cell Signaling Technology, Danvers, MA, USA), Chk2 ([…], cat#2662, Cell Signaling Technology, Danvers, MA, USA), p-p53(Ser15) (1:1000, cat#9284, Cell Signaling Technology, Danvers, MA, USA), p-p53(Ser46) (1:1000, cat#2521, Cell Signaling Technology, Danvers, MA, USA), p53 (1:1000, cat#2524, Cell Signaling Technology, Danvers, MA, USA), Cleaved caspase 9 (1:1000, cat#9505, Cell Signaling Technology, Danvers, MA, USA), Cleaved caspase 3 (1:1000, cat#9661, Cell Signaling Technology, Danvers, MA, USA), Cleaved PARP (1:1000, cat#5625, Cell Signaling Technology, Danvers, MA, USA), and GAPDH (1:2000, cat#ab9485, Abcam, Cambridge, UK). Proteins of interest were detected with HRP-conjugated sheep anti-mouse (1:5000, cat#7076, Cell Signaling Technology, Danvers, MA, USA) or anti-rabbit IgG antibody (1:5000, cat#7074, Cell Signaling Technology, Danvers, MA, USA) and visualized with the Clarity ECL Western blotting substrate (Bio-Rad, Hercules, CA, USA) according to the provided protocol.

ARPE-19 cells [5] = assay: Western blot of apoptotic markers in cytoplasmic and mitochondrial fractions; assay type: cell-based, Human; conditions: ARPE-19, 48-h exposure, cytoplasmic and mitochondrial fractions (Figure 5c)
S. aureus/MRSA = assay: MIC by broth microdilution; assay type: cell-based; conditions: 35 °C, 24 h, duplicates
Description: The minimum inhibitory concentrations (MIC) of cationic peptides were determined using the broth microdilution method in a 96-well microtiter plate (Cellstar, Greiner Bio-One, Austria). The inoculum was prepared by suspending overnight grown isolated colonies selected from a Tryptic Soy Agar (TSA) plate in water for injection. The concentration of the inoculum suspension was adjusted to match that of the 0.5 McFarland’s standard (10^8 CFU/mL) and further diluted 150-fold by adding 50 μL of suspension into 7.5 mL of Mueller−Hinton broth to obtain an inoculum of 10^5 to 10^6 CFU/mL. Lyophilized peptide obtained from the manufacturer was dissolved in water and adjusted to a final concentration of 0.5 to 256 μg/mL in twofold serial dilutions. A total of 100 μL of the solution was then mixed with an equal volume of bacterial inoculum prepared before in 96-well plates. The plates were then incubated at 35 °C for 24 h, and the optical density at 600 nm (OD600) was determined using a TECAN microplate reader.

[6] = WERI-Rb1 cells, 48 h, dose used for spheroid treatment

| SMILES | cell death at a high dose (WERI-Rb1 cells [1]) | cell death at a low dose (WERI-Rb1 cells [1]) | IC50 (WERI-Rb1 cells [2]; [6]) | cytotoxic effect on non-malignant ARPE-19 cells (ARPE-19 cells [3]) | effect on Rb spheroid size (WERI-Rb1 tumor spheroids) | phosphorylation of ATM and CHK2 (immunoblot) (WERI-Rb1 cells [4]) | γH2A.X phosphorylation at Ser139 (immunoblot) (WERI-Rb1 cells [4]) | apoptotic events in ARPE-19 cells (Bax, cytochrome c) (ARPE-19 cells [5]) | further results |
| --- | --- | --- | --- | --- | --- | --- | --- | --- | --- |
| N=C(N)NCCC[C@H](NC(=O)[C@@H](CCCCN)NC(=O)[C@H](CCCNC(=N)N)NC(=O)[C@@H](CCCCN)NC(=O)[C@H](CCCNC(=N)N)NC(=O)[C@@H](CCCCN)NC(=O)[C@H](CCCNC(=N)N)NC(=O)[C@@H](CCCCN)NC(=O)[C@H](CCCNC(=N)N)NC(=O)[C@@H](CCCCN)NC(=O)[C@H](CCCNC(=N)N)NC(=O)[C@H](N)CCCCN)C(=O)O [HC5] (H-[dK]R[dK]R[dK]R[dK]R[dK]R[dK]R-OH; N-terminus and C-terminus assumed) | 60% | 40% | 65.2 µL/mL | did not display any cytotoxic effect | effectively shrunk and decreased the Rb spheroid size | induced phosphorylation of ATM (ataxia-telangiectasia mutated) at Ser1981 and CHK2 at Thr68 | did not show any activation of γH2A.X(Ser139) | did not trigger any apoptotic events | – |
| CCCCCCCCCC(=O)N[C@@H](Cc1c[nH]c2ccccc12)C(=O)N[C@H](CC(N)=O)C(=O)N[C@@H](CC(=O)O)C(=O)N[C@@H]1C(=O)NCC(=O)N[C@@H](CCCN)C(=O)N[C@@H](CC(=O)O)C(=O)N[C@H](C)C(=O)N[C@@H](CC(=O)O)C(=O)NCC(=O)N[C@H](CO)C(=O)N[C@@H]([C@H](C)CC(=O)O)C(=O)N[C@@H](CC(=O)c2ccccc2N)C(=O)O[C@@H]1C [Daptomycin] | – | – | – | – | – | – | – | – | Minimum inhibitory concentration (S. aureus/MRSA; strain MRSA 9808R, Mueller-Hinton broth): 0.31 µM (≈ 0.502 µg/mL); Minimum inhibitory concentration (S. aureus/MRSA; strain MRSA 21595, Mueller-Hinton broth): 0.31 µM (≈ 0.502 µg/mL); Minimum inhibitory concentration (S. aureus/MRSA; strain MRSA 42412, Mueller-Hinton broth): 0.31 µM (≈ 0.502 µg/mL); Minimum inhibitory concentration (S. aureus/MRSA; strain MRSA 43300, Mueller-Hinton broth): 0.31 µM (≈ 0.502 µg/mL); Minimum inhibitory concentration (S. aureus/MRSA; strain MRSA 68004, Mueller-Hinton broth): 0.31 µM (≈ 0.502 µg/mL); Minimum inhibitory concentration (S. aureus/MRSA; strain MRSA 700699, Mueller-Hinton broth): 0.62 µM (≈ 1 µg/mL); Minimum inhibitory concentration (S. aureus/MRSA; strain MRSA +B32:L426506, Mueller-Hinton broth): 0.31 µM (≈ 0.502 µg/mL); Minimum inhibitory concentration (S. aureus/MRSA; strain MRSA BAA38, Mueller-Hinton broth): 4.94 µM (≈ 8.01 µg/mL); Minimum inhibitory concentration (S. aureus/MRSA; strain MRSA DB57964/04, Mueller-Hinton broth): 0.31 µM (≈ 0.502 µg/mL); Minimum inhibitory concentration (S. aureus/MRSA; strain S. aureus 4299, Mueller-Hinton broth): 2.47 µM (≈ 4 µg/mL); Minimum inhibitory concentration (S. aureus/MRSA; strain S. aureus 4400R, Mueller-Hinton broth): 0.31 µM (≈ 0.502 µg/mL); Minimum inhibitory concentration (S. aureus/MRSA; strain S. aureus 4583R, Mueller-Hinton broth): 0.31 µM (≈ 0.502 µg/mL); Minimum inhibitory concentration (S. aureus/MRSA; strain S. aureus 6538, Mueller-Hinton broth): 0.15 µM (≈ 0.243 µg/mL); Minimum inhibitory concentration (S. aureus/MRSA; strain S. aureus 29213, Mueller-Hinton broth): 0.15 µM (≈ 0.243 µg/mL); Minimum inhibitory concentration (S. aureus/MRSA; strain S. aureus 29737, Mueller-Hinton broth): 0.31 µM (≈ 0.502 µg/mL) |
| CC[C@@]1(O)C(=O)OCc2c1cc1n(c2=O)Cc2cc3c(CN(C)C)c(O)ccc3nc2-1 [topotecan, Topotecan hydrochloride hydrate] | – | – | – | – | disrupted Rb spheroids | – | induction of γH2A.X phosphorylation at Ser139 | induced Bax expression in the mitochondrial fraction of ARPE-19 | IC50 (WERI-Rb1 cells [2]; WERI-Rb1, MTS, 48 h exposure, 5 nM to 50 nM (Figure S3), read-out: IC50): 10 nM |
| COc1cccc2c1C(=O)c1c(O)c3c(c(O)c1C2=O)C[C@@](O)(C(=O)CO)C[C@@H]3O[C@H]1C[C@H](N)[C@H](O)[C@H](C)O1 [doxorubicin] | – | – | – | – | – | – | – | – | IC50 (WERI-Rb1 cells [2]; WERI-Rb1, MTS, 48 h exposure, (Figure S4), read-out: IC50): 2500 nM |
| N=C(N)NCCC[C@@H](NC(=O)[C@H](CCCCN)NC(=O)[C@@H](CCCNC(=N)N)NC(=O)[C@H](CCCCN)NC(=O)[C@@H](CCCNC(=N)N)NC(=O)[C@H](CCCCN)NC(=O)[C@@H](CCCNC(=N)N)NC(=O)[C@H](CCCCN)NC(=O)[C@@H](CCCNC(=N)N)NC(=O)[C@H](CCCCN)NC(=O)[C@@H](CCCNC(=N)N)NC(=O)[C@@H](N)CCCCN)C(=O)O [HC3] (H-K[dR]K[dR]K[dR]K[dR]K[dR]K[dR]-OH; N-terminus and C-terminus assumed) | 60% | 40% | 77.2 µL/mL | did not display any cytotoxic effect | effectively shrunk and decreased the Rb spheroid size | induced phosphorylation of ATM (ataxia-telangiectasia mutated) at Ser1981 and CHK2 at Thr68 | did not show any activation of γH2A.X(Ser139) | did not trigger any apoptotic events | – |
